PubChem BioAssay (NCI)
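Step 1: Grow cells in 96-well plates. Step 2: Expose to compound for 48 hours at 5 concentrations. Step 3: Interpolate endpoints linearly; if unreached, use highest concentration. Here, GI50 denotes the concentration required for 50% inhibition of growth. TGI: concentration producing complete growth inhibition.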

Tests used:
Assay in all cases: growth of human tumour cells (NCI), 48 h
[1] = tested on: RPMI-8226 leukemia
[2] = tested on: NCI-H226 lung
[3] = tested on: UACC-62 melanoma
[4] = tested on: SNB-75 CNS
[5] = tested on: OVCAR-3 ovarian
[6] = tested on: HOP-92 NSCLC
[7] = tested on: OVCAR-4 ovarian
[8] = tested on: SF-539 CNS
[9] = tested on: M14 melanoma
[10] = tested on: A549 NSCLC

Work on `CCOC(=O)C1(Br)C(c2ccccc2)NC(=O)NC1(C)Br` (configuration not stated) yielded a TGI [1] of over 88.9 µM, a TGI [2] of over 100 µM and a TGI [3] of over 100 µM. The TGI [4] was over 100 µM, the TGI [5] was over 100 µM and the TGI [6] was over 93.5 µM. The GI50 [7] was 30.3 µM, the TGI [7] was over 100 µM and the GI50 [8] was over 100 µM. For the same compound, the TGI [8] was over 100 µM, the TGI [9] was over 100 µM and the TGI [10] was over 100 µM.
`O=C1C=C(NCCNC(=S)Nc2ccccc2)c2nccc3c2c1nc1ccccc13` showed a GI50 [1] of 74.6 µM, a TGI [1] of over 100 µM and a GI50 [2] of 70 µM. The TGI [2] was over 100 µM, the GI50 [3] was 20.6 µM and the TGI [3] was 73 µM. For the same compound, the GI50 [4] was over 100 µM, the TGI [4] was over 100 µM and the GI50 [5] was 18.1 µM. It also gave a TGI [5] of over 100 µM, a GI50 [6] of over 100 µM and a TGI [6] of over 100 µM. For the same compound, the GI50 [7] was 92.7 µM, the TGI [7] was over 100 µM and the GI50 [8] was 49.1 µM. For the same compound, the TGI [8] was over 100 µM, the GI50 [9] was 39.3 µM and the TGI [9] was over 100 µM. It also gave a GI50 [10] of 44.7 µM and a TGI [10] of over 100 µM.
With `O=C(O)[C@@H]1[C@H](C(=O)O)[C@H](C(=O)O)C[C@@H]1C(=O)O` the TGI [1] was over 100 µM, the TGI [2] was over 100 µM and the TGI [3] was over 100 µM. The TGI [4] was over 100 µM, the TGI [5] was over 100 µM and the TGI [6] was over 100 µM. The TGI [7] was over 100 µM, the TGI [8] was over 100 µM and the TGI [9] was over 100 µM. For the same compound, the TGI [10] was over 100 µM.
In the case of `CC1CC2CC(=O)CC3(C1)C2CCCN3CCCO` (configuration not stated), the TGI [1] is reported as over 100 µM, the TGI [2] is reported as over 100 µM and the TGI [3] is reported as over 100 µM. For the same compound, the TGI [4] was over 100 µM, the TGI [5] was over 100 µM and the TGI [6] was over 100 µM. For the same compound, the TGI [7] was over 100 µM, the TGI [8] was over 100 µM and the TGI [9] was over 100 µM. It also gave a TGI [10] of over 100 µM.
Work on `COC(=O)C1C(O)CC(c2ccccn2)N(Cc2ccccc2)C1c1ccccn1` (configuration not stated) yielded a TGI [1] of over 100 µM, a TGI [2] of over 100 µM and a TGI [3] of over 100 µM. For the same compound, the TGI [4] was over 100 µM, the TGI [5] was over 100 µM and the TGI [6] was over 100 µM. It also gave a TGI [7] of over 100 µM, a TGI [8] of over 100 µM and a TGI [9] of over 100 µM. For the same compound, the TGI [10] was over 100 µM.
For `O=C(c1ccc2ccccc2c1)c1c(C(F)(F)F)n([O-])c2cc(F)c(F)cc2[n+]1=O`, the GI50 [1] was 1.12 µM, the TGI [1] was 3.79 µM and the GI50 [2] was 4.86 µM. It also gave a TGI [2] of 44.2 µM, a GI50 [3] of 2.75 µM and a TGI [3] of 6.62 µM. For the same compound, the GI50 [4] was 4.29 µM, the TGI [4] was 15 µM and the GI50 [5] was 1.46 µM. For the same compound, the TGI [5] was 2.98 µM, the GI50 [6] was 1.84 µM and the TGI [6] was 3.46 µM. The GI50 [7] was 13 µM, the TGI [7] was 27.2 µM and the GI50 [8] was 2.21 µM. For the same compound, the TGI [8] was 3.98 µM, the GI50 [9] was 2.53 µM and the TGI [9] was 7.11 µM. The GI50 [10] was 4.33 µM and the TGI [10] was 16.4 µM.
`CC1(C)CC[C@H](Nc2ncc(C(F)(F)F)c(-c3c[nH]c4c(P(C)(C)=O)c(C#N)ccc34)n2)CN1` gave a GI50 [1] of under 0.01 µM, a TGI [1] of 3.43 µM and a GI50 [2] of 0.165 µM. It also gave a TGI [2] of 6.78 µM, a GI50 [3] of under 0.01 µM and a TGI [3] of 2.19 µM. The GI50 [4] was 0.774 µM, the TGI [4] was 10.6 µM and the GI50 [5] was under 0.0214 µM. It also gave a TGI [5] of 4.29 µM, a GI50 [6] of 0.345 µM and a TGI [6] of 28.8 µM. The GI50 [7] was 0.365 µM, the TGI [7] was 6.89 µM and the GI50 [8] was 0.245 µM. For the same compound, the TGI [8] was 4.73 µM, the GI50 [9] was 0.0759 µM and the TGI [9] was 6.69 µM. For the same compound, the GI50 [10] was 0.184 µM and the TGI [10] was 35.4 µM.
